19 compounds from patent US11168055B2, “Endocyclic thiamidinoamide-arylamide compound and use thereof for treating hepatitis B” (SHANGHAI LONGWOOD BIOPHARMACEUTICALS CO., LTD., priority 2017, dated 2021) can be followed below.

In data set [1] the test system is HBV DNA in the supernatant of HepG2.2.15. Briefly: Determination of anti-HBV activity in HepG2.2.15 cell (HBV DNA in supernatant by qPCR). The data set is classed as cell-based, Hepatitis B virus. Conditions: HBV DNA, read-out: Experiment 2 Cell experiment EC50.
A further data set relates to HepG2 cells. Briefly: Determination of cytotoxicity (HepG2 cells, resazurin assay, 4 days). Conditions: read-out: Experiment 3 Cytotoxicity CC50. The data set is classed as cell-based. The protocol:
Experiment 3: Determination of Cytotoxicity
The cytotoxicity of the test compound was tested using HepG2 cells. The cells were incubated for 4 days in the presence of the test compound. Cell activity was assessed using the resazurin assay.

Where two headings read alike, the source gives them in different places.

For orientation: EC50 means the concentration at which the effect is half-maximal. The CC50 is the concentration giving 50% cytotoxicity.

Take `CN=S1(=O)N[C@@H](CC(C)C)CCc2c1cn(C)c2C(=O)Nc1ccc(F)c(C#N)c1` (single isomer, unassigned) [Compound 60v2]: the EC50 in data set [1] (HepG2.2.15 cells) is 0.0001 to 0.1 µM. The CC50 in the data set with HepG2 cells was more than 30 µM.
On to `Cn1cc2c(c1C(=O)Nc1ccnc(C(F)F)c1)CC[C@H](C1CCCCC1)NS2(=N)=O` (single isomer, unassigned) [Compound 20ee2], for which, in data set [1] (HepG2.2.15 cells), the EC50 was in the range of 0.0001 to 0.1 µM. Besides, in the data set on HepG2 cells, the CC50 is more than 30 µM.
In the same order, the values of `CC(C)[C@@H]1C=Cc2c(cn(C)c2C(=O)Nc2ccc(F)c(F)c2)S(=N)(=O)N1` (single isomer, unassigned) [Compound 10g2] are 0.0001 to 0.1 µM and more than 30 µM.
The corresponding values for `C[C@@H](OCc1ccccc1)[C@H]1C=Cc2c(cn(C)c2C(=O)Nc2ccc(F)c(C#N)c2)S(=N)(=O)N1` (single isomer, unassigned) [Compound 10ccc2] are 0.0001 to 0.1 µM and more than 30 µM.
Consider `C[C@@H](OCc1ccccc1)[C@H]1C=Cc2c(cn(C)c2C(=O)Nc2cc(F)c(F)c(F)c2)S(=N)(=O)N1` (single isomer, unassigned) [Compound 10ddd2], for which the EC50 in data set [1] (HepG2.2.15 cells) fell in the range of 0.0001 to 0.1 µM. Besides, the CC50 with HepG2 cells was more than 30 µM.
The corresponding values for `CC(C)C[C@H]1C=Cc2c(cn(C)c2C(=O)Nc2ccc(F)c(C#N)c2)S(=O)(=NC2CC2)N1` (single isomer, unassigned) [Compound 50v2] are 0.0001 to 0.1 µM and more than 30 µM.
For the compound `CC[C@H](C)[C@H]1C=Cc2c(cn(C)c2C(=O)Nc2ccc(F)c(F)c2)S(=N)(=O)N1` (single isomer, unassigned) [Compound 10n2], the EC50 in data set [1] (HepG2.2.15 cells) was in the range of 0.0001 to 0.1 µM. For the same compound, the CC50 in the data set with HepG2 cells was more than 30 µM.
With `CC(C)[C@H]1C=Cc2c(cn(C)c2C(=O)Nc2ccc(F)c(C#N)c2)S(=N)(=O)N1` (single isomer, unassigned) [Compound 10b2], the EC50 in data set [1] (Hepatitis B virus, HepG2.2.15, HepG2.2.15 cells) was in the range of 0.0001 to 0.1 µM. Besides, in the data set on HepG2 cells, the CC50 was more than 30 µM.
In the case of `Cn1cc2c(c1C(=O)Nc1cc(F)nc(C#N)c1)CC[C@H](C1CCCCC1)NS2(=N)=O` (single isomer, unassigned) [Compound 20dd2], the EC50 in data set [1] (HepG2.2.15 cells) fell in the range of 0.0001 to 0.1 µM. The CC50 with HepG2 cells was more than 30 µM.
Take `CC(C)[C@H]1C=Cc2c(cn(C)c2C(=O)Nc2cc(F)nc(C#N)c2)S(=N)(=O)N1` (single isomer, unassigned) [Compound 10e2]: the EC50 in data set [1] (HepG2.2.15 cells) was 0.0001 to 0.1 µM. Moreover, in the data set on HepG2 cells, the CC50 is more than 30 µM.
In the same order, the values of `CC(C)[C@@H]1C=Cc2c(cn(C)c2C(=O)Nc2ccc(F)c(C#N)c2)S(=N)(=O)N1` (single isomer, unassigned) [Compound 10h2] are more than 1 µM and more than 30 µM.
For the compound `CC(O)[C@H]1C=Cc2c(cn(C)c2C(=O)Nc2cc(F)c(F)c(F)c2)S(=N)(=O)N1` (single isomer, unassigned) [Compound 30c2], the EC50 in data set [1] (HepG2.2.15 cells) lay in the range of 0.1 to 1 µM. For the same compound, in the data set with HepG2 cells, the CC50 was more than 30 µM.
In the case of `COc1ccc(CC[C@H](C)[C@H]2CCc3c(cn(C)c3C(=O)Nc3cc(F)c(F)c(F)c3)S(=N)(=O)N2)cc1` (single isomer, unassigned) [Compound 20ttt2], the EC50 in data set [1] (HepG2.2.15 cells) was 0.0001 to 0.1 µM. The CC50 in the data set with HepG2 cells was more than 30 µM.
Take `C[C@@H](OCc1ccccc1)[C@H]1CCc2c(cn(C)c2C(=O)Nc2ccc(F)c(C#N)c2)S(=N)(=O)N1` (single isomer, unassigned) [Compound 20ccc2]: the EC50 in data set [1] (HepG2.2.15 cells) fell in the range of 0.0001 to 0.1 µM. The CC50 with HepG2 cells is more than 30 µM.
For the compound `CC(C)[C@H]1CCc2c(cn(C)c2C(=O)Nc2cc(F)c(F)c(F)c2)S(=N)(=O)N1` (single isomer, unassigned) [Compound 20c2], the EC50 in data set [1] (HepG2.2.15 cells) fell in the range of 0.0001 to 0.1 µM. Also, in the data set on HepG2 cells, the CC50 was more than 30 µM.
In the same order, the values of `CN=S1(=O)N[C@@H](CC(C)C)CCc2c1nn(C)c2C(=O)Nc1ccc(F)c(C#N)c1` (single isomer, unassigned) [Compound 90b2] are 0.0001 to 0.1 µM and more than 30 µM.
Take `Cn1cc2c(c1C(=O)Nc1ccc(F)c(C#N)c1)C=C[C@H](C1CCCCC1)NS2(=N)=O` (single isomer, unassigned) [Compound 10cc2]: the EC50 in data set [1] (HepG2.2.15 cells) was 0.0001 to 0.1 µM. Besides, the CC50 in the data set with HepG2 cells is more than 30 µM.
On to `CC(C)[C@H]1C=Cc2c(cn(C)c2C(=O)Nc2cc(F)c(F)c(F)c2)S(=N)(=O)N1` (single isomer, unassigned) [Compound 10c2], for which the EC50 in data set [1] (HepG2.2.15 cells) is 0.0001 to 0.1 µM. Also, in the data set on HepG2 cells, the CC50 is more than 30 µM.
The corresponding values for `CC[C@H](C)[C@H]1C=Cc2c(cn(C)c2C(=O)Nc2ccc(F)c(C#N)c2)S(=N)(=O)N1` (single isomer, unassigned) [Compound 10o2] are 0.0001 to 0.1 µM and more than 30 µM.
